pEC50, pIC50: −log10 of the molar value. Values after ≈ are worked out from the molar mass of the structure shown. Active and inactive are the calls of the source. The rule behind the calls is not given here.
Legend:
Rattus norvegicus [1] = assay: Appetite suppressing activity in rat assessed as reduction in food intake at 3 nmol/kg, sc measured after 24 hrs relative to control; assay type: functional; set-up: scale not given: the % may be the effect or the level left
Rattus norvegicus [2] = assay: Appetite suppressing activity in HFD-fed DIO rat model assessed as body weight lost at 0.7 nmol/kg, sc qd measured after 21 days; assay type: functional; settings: time 21 day
Rattus norvegicus [3] = assay: Appetite suppressing activity in HFD-fed DIO rat model assessed as reduction in fat mass administered subcutaneously once daily measured after 21 days; assay type: functional, organism-based; settings: dose 0.7-22 nmol/kg, route sc, time 21.0 day
Canis familiaris [4] = assay: Appetite suppressing activity in dog assessed as reduction in food intake at 3 nmol/kg, sc measured for 48 hrs; assay type: functional, organism-based; settings: Canis lupus familiaris
Rattus norvegicus [5] = assay: Appetite suppressing activity in HFD-fed DIO rat model assessed as reduction in body weight at 0.7 to 22 nmol/kg, sc qd measured after 15 days; assay type: functional, organism-based; settings: dose 0.7-22 nmol/kg, time 15.0 day
[6] = Solubility of compound at pH 8 incubated overnight by UPLC analysis; assay type: physicochemical; settings: buffer
[7] = Solubility of compound at pH 7.5 incubated overnight by UPLC analysis; assay type: physicochemical; settings: buffer
Calcitonin receptor [8] = biological target: T1, Calcitonin receptor (Homo sapiens, UniProt P30988); assay: Displacement of 125I-Calcitonin from human CTR expressed in Baby hamster kidney cell membrane incubated for 120 mins by SPA method; assay type: cell membranes
T1 sequence (P30988 whole entry): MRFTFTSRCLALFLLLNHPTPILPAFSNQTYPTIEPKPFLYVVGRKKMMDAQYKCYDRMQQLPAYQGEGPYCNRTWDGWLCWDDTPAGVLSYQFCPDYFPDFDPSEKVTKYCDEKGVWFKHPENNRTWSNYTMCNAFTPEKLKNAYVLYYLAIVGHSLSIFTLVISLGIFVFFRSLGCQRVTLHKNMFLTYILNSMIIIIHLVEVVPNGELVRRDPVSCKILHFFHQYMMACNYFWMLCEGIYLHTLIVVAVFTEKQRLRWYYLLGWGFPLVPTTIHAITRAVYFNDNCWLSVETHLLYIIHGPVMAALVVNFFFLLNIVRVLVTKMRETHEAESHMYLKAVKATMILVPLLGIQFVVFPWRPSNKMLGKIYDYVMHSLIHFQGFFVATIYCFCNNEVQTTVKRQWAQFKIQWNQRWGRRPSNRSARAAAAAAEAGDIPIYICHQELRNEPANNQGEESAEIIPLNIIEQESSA

[9] = biological target: Calcitonin-gene-related peptide receptor, CALCRL/RAMP1 (Homo sapiens, UniProt O60894+Q16602); assay: Agonist activity at human CGRPR complex of CRLR/RAMP1 transduced in human HeLa cells by cAMP assay; assay type: functional, cell-based
Calcitonin receptor [10] = biological target: T2, Calcitonin receptor (Rattus norvegicus, UniProt P32214); assay: Agonist activity at rat CTR expressed in Baby hamster kidney cells incubated for 3 hrs by cAMP assay; assay type: functional, cell-based, Baby hamster kidney cell
T2 sequence (P32214 whole entry): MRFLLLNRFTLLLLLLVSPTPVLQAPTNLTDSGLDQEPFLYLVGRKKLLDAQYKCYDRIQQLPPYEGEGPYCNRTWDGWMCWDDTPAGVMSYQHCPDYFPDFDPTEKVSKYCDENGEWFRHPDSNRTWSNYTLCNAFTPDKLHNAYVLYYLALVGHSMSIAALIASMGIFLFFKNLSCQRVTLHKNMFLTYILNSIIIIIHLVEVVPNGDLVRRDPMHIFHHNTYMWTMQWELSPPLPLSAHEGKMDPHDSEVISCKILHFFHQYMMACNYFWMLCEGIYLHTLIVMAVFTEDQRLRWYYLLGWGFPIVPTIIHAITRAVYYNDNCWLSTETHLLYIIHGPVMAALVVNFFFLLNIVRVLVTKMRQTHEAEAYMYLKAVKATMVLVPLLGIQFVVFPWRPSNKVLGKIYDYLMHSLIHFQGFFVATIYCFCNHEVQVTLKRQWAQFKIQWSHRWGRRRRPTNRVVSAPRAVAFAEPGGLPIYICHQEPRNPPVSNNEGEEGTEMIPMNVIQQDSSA

[11] = Solubility of compound at pH 4 incubated overnight by UPLC analysis; assay type: physicochemical; settings: buffer
Rattus norvegicus [12] = assay: Appetite suppressing activity in rat assessed as reduction in food intake administered subcutaneously measured for 48 hrs; assay type: functional, organism-based; settings: dose 3-100 nmol/kg, route sc
Canis familiaris [13] = assay: Appetite suppressing activity in dog assessed as reduction in food intake at 300 nmol/kg, sc measured for 48 hrs relative to control; assay type: functional, Canis lupus familiaris; set-up: scale not given: the % may be the effect or the level left
[14] = biological target: T3, Amylin receptor AMY3; CALCR/RAMP3 (Rattus norvegicus, UniProt P32214+Q9JJ73); assay: Agonist activity at rat AMY3R complex of CTR/RAMP3 expressed in Baby hamster kidney cells incubated for 3 hrs by cAMP assay; assay type: functional, cell-based, Baby hamster kidney cell
T3 sequence (P32214 whole entry): T2 sequence (P32214 whole entry)
T3 sequence (Q9JJ73 whole entry): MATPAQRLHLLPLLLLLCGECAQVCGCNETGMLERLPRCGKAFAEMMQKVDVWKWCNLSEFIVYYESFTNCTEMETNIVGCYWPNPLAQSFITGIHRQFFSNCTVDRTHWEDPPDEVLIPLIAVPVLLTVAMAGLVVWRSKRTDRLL

Rattus norvegicus [15] = assay: Appetite suppressing activity in HFD-fed DIO rat model assessed as reduction in body weight administered subcutaneously once daily measured after 21 days; assay type: functional, organism-based; settings: dose 0.7-22 nmol/kg, route sc, time 21.0 day
[16] = Toxicity in dog assessed as sign of discomfort at 3 to 300 nmol/kg, sc; set-up: species or system Canis lupus familiaris; settings: in vivo, dose 3-300 nmol/kg
Rattus norvegicus [17] = assay: Appetite suppressing activity in HFD-fed DIO rat model assessed as body weight lost at 22 nmol/kg, sc qd measured after 21 days; assay type: functional; settings: time 21 day
Rattus norvegicus [18] = assay: Appetite suppressing activity in rat assessed as reduction in food intake at 3 nmol/kg, sc measured after 48 hrs relative to control; assay type: functional; set-up: scale not given: the % may be the effect or the level left
Canis familiaris [19] = assay: Appetite suppressing activity in dog assessed as reduction in food intake at 30 nmol/kg, sc measured upto 7 days; assay type: functional, organism-based; settings: Canis lupus familiaris, time <= 7.0 day
Calcitonin receptor [20] = biological target: T1, Calcitonin receptor; assay: Agonist activity at human CTR transduced in human HeLa cells by cAMP assay; assay type: functional, cell-based
[21] = Solubility of compound at pH 6.5 incubated overnight by UPLC analysis; assay type: physicochemical; settings: buffer
[22] = Terminal half life in rabbit at 2 nmol/kg, iv; assay type: ADME, Oryctolagus cuniculus; settings: in vivo, read-out: beta t1/2 (converted)
[23] = Solubility of compound at pH 3 incubated overnight by UPLC analysis; assay type: physicochemical; settings: buffer
[24] = Terminal half life in rat at 2.5 nmol/kg, sc; assay type: ADME; settings: in vivo, read-out: beta t1/2 (converted)
Calcitonin receptor [25] = biological target: T1, Calcitonin receptor; assay: Agonist activity at human CTR expressed in Baby hamster kidney cells incubated for 3 hrs followed by medium replacement without compound measured after 30 mins by luciferase reporter assay; assay type: functional, cell-based, Baby hamster kidney cell
Rattus norvegicus [26] = assay: Appetite suppressing activity in HFD-fed DIO rat model assessed as reduction in food intake at 0.7 to 22 nmol/kg, sc qd measured for 1 to 2 hrs; assay type: functional, organism-based; settings: dose 0.7-22 nmol/kg, time 1-2 hrs
[27] = Toxicity in dog assessed as vomiting at 3 to 300 nmol/kg, sc; set-up: species or system Canis lupus familiaris; settings: in vivo, dose 3-300 nmol/kg
Rattus norvegicus [28] = assay: Appetite suppressing activity in rat assessed as reduction in food intake at 30 nmol/kg, sc measured upto 24 hrs relative to control; assay type: functional; set-up: scale not given: the % may be the effect or the level left

Calcitonin-gene-related peptide receptor, CALCRL/RAMP1, sequence (O60894 whole entry): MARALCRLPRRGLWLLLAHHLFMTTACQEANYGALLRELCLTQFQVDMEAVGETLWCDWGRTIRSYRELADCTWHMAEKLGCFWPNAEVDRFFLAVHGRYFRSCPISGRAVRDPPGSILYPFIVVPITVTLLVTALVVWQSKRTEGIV
Calcitonin-gene-related peptide receptor, CALCRL/RAMP1, sequence (Q16602 whole entry): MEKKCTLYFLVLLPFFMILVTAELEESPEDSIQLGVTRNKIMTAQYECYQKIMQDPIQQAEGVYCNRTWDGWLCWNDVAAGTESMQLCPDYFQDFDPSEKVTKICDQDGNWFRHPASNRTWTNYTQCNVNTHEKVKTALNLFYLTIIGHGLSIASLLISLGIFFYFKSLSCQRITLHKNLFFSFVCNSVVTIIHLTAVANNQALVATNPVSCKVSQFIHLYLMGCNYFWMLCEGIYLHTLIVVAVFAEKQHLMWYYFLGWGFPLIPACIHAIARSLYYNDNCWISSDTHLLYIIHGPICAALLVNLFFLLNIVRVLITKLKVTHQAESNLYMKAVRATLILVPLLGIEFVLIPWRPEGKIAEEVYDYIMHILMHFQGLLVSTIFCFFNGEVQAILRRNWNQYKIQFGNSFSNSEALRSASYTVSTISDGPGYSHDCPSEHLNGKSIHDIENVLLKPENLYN

solubility [6]: 110 µM (≈ 437 µg/mL)
solubility [7]: 106 µM (≈ 421 µg/mL)
pIC50 (Calcitonin receptor [8]): 7.38
pEC50 [9]: 6.57
pEC50 (Calcitonin receptor [10]): 6.99
solubility [11]: ≥ 200 µM
pEC50 [14]: 9.58
pEC50 (Calcitonin receptor [20]): 8.76
solubility [21]: ≥ 200 µM
half-life [22]: ~50 h
solubility [23]: ≥ 200 µM
half-life [24]: ~24 h
pEC50 (Calcitonin receptor [25]): 8.28
Structure (SMILES): CC[C@H](C)[C@H](NC(=O)[C@H](C)NC(=O)CNC(=O)[C@H](Cc1ccccc1)NC(=O)[C@H](CC(N)=O)NC(=O)[C@@H]1CCCN1C(=O)[C@H](CO)NC(=O)[C@H](CO)NC(=O)[C@H](Cc1c[nH]cn1)NC(=O)[C@H](CCCNC(=N)N)NC(=O)[C@H](CC(C)C)NC(=O)[C@H](Cc1ccccc1)NC(=O)[C@H](CC(=O)O)NC(=O)[C@H](C)NC(=O)[C@H](CC(C)C)NC(=O)[C@H](CCCNC(=N)N)NC(=O)[C@H](CCC(N)=O)NC(=O)[C@@H](NC(=O)[C@H](C)NC(=O)[C@@H]1CSSC[C@H](NC(=O)[C@@H](N)CCCCN)C(=O)N[C@@H](CC(N)=O)C(=O)N[C@@H]([C@@H](C)O)C(=O)N[C@@H](C)C(=O)N[C@@H]([C@@H](C)O)C(=O)N1)[C@@H](C)O)C(=O)N1CCC[C@H]1C(=O)N[C@@H](CO)C(=O)N[C@@H](CO)C(=O)N[C@H](C(=O)N[C@@H](CC(N)=O)C(=O)N[C@H](C(=O)NCC(=O)N[C@@H](CO)C(=O)N[C@@H](CCCNC(=N)N)C(=O)N[C@H](C(=O)N[C@@H](Cc1ccc(O)cc1)C(N)=O)[C@@H](C)O)C(C)C)[C@@H](C)O
Activity (Rattus norvegicus [1]): 25%
Activity (Rattus norvegicus [2]): 32 g
Activity (Rattus norvegicus [3]): Dose-Dependent Effect
Activity (Canis familiaris [4]): inactive
Activity (Rattus norvegicus [5]): inactive
Activity (Rattus norvegicus [12]): Dose-Dependent Effect
Activity (Canis familiaris [13]): 90%
Activity (Rattus norvegicus [15]): Dose-Dependent Effect
Activity [16]: Non-Toxic
Activity (Rattus norvegicus [17]): 69.6 g
Activity (Rattus norvegicus [18]): 15%
Activity (Canis familiaris [19]): Active
Activity (Rattus norvegicus [26]): Active
Activity [27]: Non-Toxic
Activity (Rattus norvegicus [28]): 70%

Reference: ChEMBL document CHEMBL5523739, “NN1213 - A Potent, Long-Acting, and Selective Analog of Human Amylin” (J Med Chem, 2024)
